Laboratory results: PubChem BioAssay (NCI)
“And” between values parts separate entries of the source, which are not always exact repeats. Equal values may be shown once.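 Step 1: Grow cells in 96-well plates. Step 2: Expose to compound for 48 hours at 5 concentrations. Step 3: Interpolate endpoints linearly; if unreached, use highest concentration. Abbreviation: GI50, concentration required for 50% inhibition of growth. TGI marks complete inhibition of growth.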

Tests used:
Test in all cases: DTP human tumour cell line panel, 48 h
[1] = system: SF-295 CNS
[2] = system: HOP-62 NSCLC
[3] = system: SF-268 CNS
[4] = system: RPMI-8226 leukemia
[5] = system: NCI-H23 lung
[6] = system: SNB-75 CNS
[7] = system: HL-60(TB) leukemia
[8] = system: SK-MEL-5 melanoma
[9] = system: HOP-92 NSCLC
[10] = system: SR leukemia

Compound | TGI [1] [µM] | TGI [2] [µM] | TGI [3] [µM] | TGI [4] [µM] | TGI [5] [µM] | TGI [6] [µM] | TGI [7] [µM] | TGI [8] [µM] | GI50 [1] [µM] | GI50 [2] [µM] | GI50 [3] | GI50 [9] [µM] | TGI [9] [µM] | GI50 [4] | GI50 [5] [µM] | GI50 [6] [µM] | GI50 [7] [µM] | GI50 [8] [µM] | TGI [10] | GI50 [10]
c1ccc(OC2=NC3=S(S2)SC(Oc2ccccc2)=N3)cc1 | 39 | 67.1 | 57.6 | 24.8 | 49 | 59.5 | 42.5 | 36.3 | – | – | – | – | – | – | – | – | – | – | – | –
CC[PH+](CC)CC.[Cl][Au] | 8.88 | 33.7 | 3.35 | 3.84 | 3.42 | 6.99 | 0.278 | 2.44 | 4.32 | 19.4 | 1.51 µM | 1.28 | 2.72 | 1.03 µM | 1.68 | 2.3 | < 0.0469 | 1.14 | – | –
CC(=O)[CH-]C(=O)c1ccccc1.CC(=O)[CH-]C(=O)c1ccccc1.[O-]c1ccc2c(c1)OCO2.[O-]c1ccc2c(c1)OCO2.[Ti+4] | > 100 | 93.8 | > 100 | 50.9 | 64.4 | 66.1 | 48 | 78.6 | 30.6 | 20.4 | 33.6 µM | 21.1 | > 100 | 18.3 µM | 22.4 | 19.2 | 10.7 | 29.1 | – | –
CC(=O)[O-].N.N.N.N.[Co+3].[O-][Cl+3]([O-])([O-])[O-].[OH3+] | > 100 | > 100 | > 100 | > 100 | > 100 | > 100 | > 100 | > 100 | > 100 | > 100 | > 100 µM | > 100 | > 100 | > 100 µM | > 100 | 55.1 | > 100 | > 100 | – | –
COc1ccc(-c2cc(=O)c3c(O)c(OC)c(OC)c(OC)c3o2)cc1 | > 100 | > 100 | > 100 | > 100 | > 74.7 | > 56.3 | > 100 | > 100 | – | – | – | – | > 82.8 | – | – | – | – | – | – | –
CCn1c2ccccc2c2cc(C(=O)c3ccc(C)c4ccccc34)ccc21 | 0.936 | > 100 | > 100 | > 100 | – | – | 2 | 1.41 | 0.273 | 0.476 | 0.877 µM | 0.28 | 6.87 | 0.389 µM | – | – | 0.307 | 0.319 | – | –
CC1(C)CCC[C@]2(C)c3ccccc3C(=O)CC12 (stereo partly drawn) | > 100 | > 100 | > 100 | > 100 | > 100 | > 100 | > 100 | 46.4 | 40.7 | > 100 | 34.3 µM | 60.8 | > 100 | 29.7 µM | 39.4 | 34.6 | 40.5 | 18 | – | –
C[C@]12C[C@H](O)[C@H]3[C@@H](CCC4=CC(=O)CC[C@@]43C)[C@@H]1CC[C@@H]2c1csc(-c2ccccc2)n1 | > 100 | > 51.3 | > 100 | > 100 | > 100 | > 82.7 | – | – | – | – | – | – | > 100 | – | – | – | – | – | > 100 µM | –
COC(=O)[C@H](Cc1cn(C)cn1)NC(=O)[C@H](Cc1ccccc1)NC(=O)Nc1cc(C(F)(F)F)cc(C(F)(F)F)c1 | 31.5 | 31.9 | 23.8 | 31.5 | 33 | 30 | 32.7 | 30.7 | 16.4 | 17.5 | 4.26 µM and 10.2 µM | – | – | 7.49 µM and 11 µM | 17.4 | 15.6 | 16.5 | 16.2 | 6.07 µM and 5.05 µM | 2.54 µM and 2.21 µM
COCCNc1cncc(C(N)=O)c1 | > 100 | > 100 | > 100 | – | > 100 | > 100 | > 100 | > 100 | – | – | – | – | – | – | – | – | – | – | > 100 µM | –
O=c1/c(=N\Nc2ccccc2)c2cccc3ccc4cccc1c4c32 | > 100 | > 100 | > 100 | > 100 | > 100 | > 100 | – | > 100 | – | – | – | – | > 100 | – | – | – | – | – | > 100 µM | –
COc1ccc([C@@H]2OC(=O)C3C2C(=O)O[C@H]3c2ccc(OC)c(OC)c2)cc1OC (stereo partly drawn) | > 100 | > 100 | > 100 | > 100 | > 100 | > 100 | > 100 | > 100 | – | – | – | – | > 100 | – | – | – | – | – | – | –
CN1CCN(CCCOc2cc(O)c3c(=O)cc(-c4ccccc4)oc3c2)CC1 | 44.5 | 32 | 48.7 | 55.2 | 43.3 | – | 39.5 | 23.1 | 21.1 | 16.6 | 20.1 µM | 14.5 | 42.9 | 21.3 µM | 19.9 | – | 19.1 | 10.3 | 44.6 µM | 16.9 µM
CC1=CCCC2C(C=O)(C1)CC(C)C2(CO)CC/C(=C/CO)CO (stereo not drawn) | > 100 | – | – | > 100 | > 100 | > 100 | – | > 100 | – | – | – | – | 87.6 | – | – | – | – | – | – | –
CCC(CO)Nc1nc2c(c(=O)n(C)c(=O)n2C)n1CCO (stereo not drawn) | > 100 | – | > 100 | > 100 | > 100 | > 100 | – | > 100 | – | – | – | – | > 100 | – | – | – | – | – | > 100 µM | –
Cc1cccc2c1[nH]c(=O)c1c3ccccc3cn21 | 25.1 | 15.2 | 8.49 | 7.15 | 38.6 | > 100 | – | 23.9 | 2.64 | 3.58 | 3.03 µM | 3.97 | 32.2 | 2 µM | 17.2 | 30.7 | – | 11.7 | 4.15 µM | 1.54 µM
N#Cc1cc(S(=O)(=O)Nc2nc3ccccc3o2)c(SCc2ccccc2)cc1Cl | 65.8 | 43.6 | > 100 | > 100 | 54.3 | 59.3 | – | 31.9 | 27.2 | 21.4 | 31.7 µM | 17.4 | 34.2 | 30.9 µM | 26.1 | 25.5 | – | 17 | > 100 µM | 76.5 µM
